Here are results for 2 molecules from patent US9745261B2, “Inhibitors of the MITF molecular pathway” (THE GENERAL HOSPITAL CORPORATION, priority 2013, dated 2017).

Series [1] relates to MITF and MITF target genes. Kind of series: qPCR of MITF and MITF target genes in human melanoma cell lines and primary melanocytes. It is filed as cell-based. As to conditions: 24 h, multiple cell lines. How it is done: (§1) Experiments described in this example were performed using methods as described in Haq et al. (2013). Oncogenic BRAF regulates oxidative metabolism via PGC1α and MITF. Cancer Cell. 2013 Mar. 18; 23(3):302-15.
Effect of ML329 (24 h at indicated concentration) on MITF mRNA and target gene mRNA expression in melanoma cell lines. mRNA was quantified by qPCR.
(In general: In qPCR the cycle at which signal appears reflects the starting amount.)

Another series has as its system MITF protein. Kind of series: MITF protein by Western immunoblotting in SKMEL-5 cells. It is filed as cell-based, human. How it is done:
as §1
MITF protein was detected using Western immunoblotting. In parallel, SK-MEL-5 cells treated with ML329 (above) were lysed and MITF mRNA was quantified by qPCR (FIG. 12b).

Another series relates to non-melanoma cells. Kind of series: Non-melanoma cell viability (CellTiter-Glo, 48-72 hours). It is filed as cell-based. As to the method: as §1
(§2) Indicated cell line was treated with varying concentrations of ML329 for 48-72 hours. Viability was measured using the CellTiter-Glo reagent (Promega).
In general terms: In ATP-based viability assays light output follows the ATP content of the culture.

Series [2] concerns human melanoma cell lines. Kind of series: Cell viability of human melanoma cell lines (CellTiter-Glo, 48-72 hours). It is filed as cell-based. As to the method:
as §1, §2

The subject of another series is CDK2. Kind of series: qPCR assay for CDK2 expression in SK-MEL-5 cells. It is filed as cell-based, human. As to conditions: qPCR. As to the method:
SK-MEL-5 cells were treated with compounds for 24 hours. Next, cells were lysed with DNase I (Ambion, from Cell to CT Lysis Mix). Lysed cells were delivered to a RT-PCR plate (Ambion, Cells to CT RT Mix) and the plates were then processed for reverse transcription to create cDNA. qPCR was performed by transferring cDNA from the RT-PCR plate to a qPCR plate containing PCR master mix (Roche, Probes Master), FAM Taqman probe/primer set for the target gene (human MITF, Applied Biosystem, 4331182 Hs01117294_m1), VIC Taqman probe/primer set for a house keeping gene (human GAPDH, Applied Biosystems C10228) and water. qPCR plates were cycled using a real-time PCR instrument (Roche, Light Cycler). Using the instrument software, a cycle call was generated when each well enters log phase amplification (Ct). The delta Ct value was determined by subtracting the Ct value of the control gene (GAPDH) from the Ct value of the target gene (MITF) in each well. The delta delta Ct value of each compound treatment was determined by averaging the delta Ct values of the mock well on each plate and subtracting that average from the delta Ct value of each compound well. […]
• 10. […] The RT assay plates are incubated at 37° C. for 1 hour and the reverse transcriptase is inactivated by incubating the plates for 1 minute at 95° C. • 13. cDNA is stored at −80° C. until ready for qPCR analysis […]

In the next series the test system is MALME-3M cells. Kind of series: MALME-3M cell cytotoxicity assay (CellTiter-Glo). It is filed as cell-based, human. Particulars: FIG. 13. As to the method: MALME-3M cells were treated with compounds for 24 hours, and then cell viability was measured using the CellTiter-Glo Assay (Promega), a luciferase-based reagent that measures cellular ATP levels. The compounds were tested at different concentrations to determine IC50 values. Compounds that were active in the primary assay and toxic below 30 μM at 24 hours were considered for probe development. Data were normalized against DMSO in Genedata Screener's Assay Analyzer.
MALME-3M cells were maintained in IMDM (20% FBS, 1% Pen-Strep-Glutamine). Cells were fluid changed every 3 days and/or split upon reaching 100% confluency. For secondary assays, cells were thawed at 6 million cells per Falcon T175 flask. After 3 days, cells were fluid changed, after 3 more days cells were passed to a Corning Triple flask (15-18 million cells) and plated after 3 days in the triple flask.
Day 1 • 1. Plate MALME-3M cells at 3,000 per well in 30 uL media (phenol red free IMDM/10% Fetal Bovine Serum/Penicillin/Streptomycin/L-Glutamine) • 2. Use Corning white 384-well, square, opaque-bottomed plates (Corning Catalog No. 8867BC)
Day 2 • 3. Pin 100 nL compound/DMSO solution (Cybi Well) into assay plates, including the positive control. • 4. Incubate 24 hours at 37° C. in Liconic incubator.
(§3) Day 3 • 5. […] Read on the Perkin-Elmer EnVision plate reader with luminescence (LUM) settings for 0.1 sec per well. […]

The test system of another series is A375 cells. Kind of series: A-375 cell cytotoxicity assay (CellTiter-Glo). It is filed as cell-based, human. Particulars: FIG. 13. As to the method: A375 cells were treated with compounds for 24 hours, and then cell viability was measured using the CellTiter-Glo Assay (Promega), a luciferase-based reagent that measures cellular ATP levels. The compounds were tested at different concentrations to determine IC50 values. Compounds that were active in the primary assay and were not toxic below 30 μM at 24 hours were considered for probe development. Data were normalized against DMSO in Genedata Screener's Assay Analyzer.
A-375 cells were maintained in DMEM (10% FBS, 1% Pen-Strep-Glutamine). Cells were fluid changed every 3 days and/or split upon reaching 90% confluency. For secondary assays, cells were thawed at 2 million cells per Falcon T175 flask. After 3 days, cells were passed to a Corning Triple flask (6-8 million cells) and plated after 3 days in the triple flask.
Day 1 • 1. Plate A-375 cells at 3,000 per well in 30 uL media (phenol red free DMEM/10% Fetal Bovine Serum/Penicillin/Streptomycin/L-Glutamine) • 2. Use Corning white 384-well, square, opaque-bottomed plates (Corning Catalog No. 8867BC)
Day 2 • 3. Pin 100 nL compound/DMSO solution (Cybi Well) into assay plates. (For HTS, required sentinel pinning with the positive control, parthenolide (6 mM)) • 4. Incubate 24 hours at 37° C. in Liconic incubator.
as §3

The subject of a further series is SK-MEL-5 cells. Put plainly: SK-MEL-5 cell cytotoxicity assay (CellTiter-Glo). It is filed as cell-based, human. As to conditions: FIG. 13. As to the method:
SK-MEL-5 cells were treated with compounds for 24 hours, and then cell viability was measured using the CellTiter-Glo Assay (Promega), a luciferase-based reagent that measures cellular ATP levels. The compounds were tested at different concentrations to determine IC50 values. Compounds that were active in the primary assay and toxic below 30 μM at 24 hours were considered for probe development. Data were normalized against DMSO in Genedata Screener's Assay Analyzer.
SK-MEL-5 cells were maintained in DMEM (10% FBS, 1% Pen-Strep-Glutamine). Cells were fluid changed every 3 days and/or split upon reaching 100% confluency. For secondary assays, cells were thawed at 4 million cells per Falcon T175 flask. After 3 days, the cells were fluid changed, after 3 more days cells were passed to a Corning Triple flask (10-15 million cells) and plated after 3 days in the triple flask.
Day 1 • 1. Plate SK-MEL-5 cells at 3,000 per well in 30 uL media (phenol red free DMEM/10% Fetal Bovine Serum/Penicillin/Streptomycin/L-Glutamine) • 2. Use Corning white 384-well, square, opaque-bottomed plates (Corning Catalog No. 8867BC)
Day 2 • 3. Pin 100 nL compound/DMSO solution (Cybi Well) into assay plates. (For HTS, required sentinel pinning with the positive control, parthenolide (6 mM)) • 4. […]
as §3

In the case of `NS(=O)(=O)c1ccc(NC2=CC(=O)c3ccccc3C2=O)cc1` [ML329, 4-((1,4-dioxo-1,4-dihydronaphthalen-2-yl)amino)benzenesulfonamide], the “Effect on MITF mRNA and target gene mRNA expression” value in series [1] is “suppresses MITF and its transcriptional activity”. The “Effect on MITF protein” value in the series on MITF protein was “suppresses MITF protein”. The “Cytotoxicity in non-melanoma cells or melanoma cells lacking MITF” value in the series with non-melanoma cells is “not cytotoxic”. For the same molecule, the “Sensitivity of melanoma cell lines (cell viability)” value was “less sensitive” in series [2] (A375, SKMEL2, IPC298 and SK30); “very sensitive” in series [2] (SKMEL5, IST MEL, MALME-3M and 501 MEL); “sensitive” in series [2] (UACC257, C32, COLO800 and MZ2MEL). For the same molecule, in series [2] (CellTiter-Glo, incl. vemurafenib-resistant lines), the “Cytotoxicity in a large number of melanoma cells” value is given as “variably cytotoxic”.
Take `Cc1nc2ccccc2n1/N=C/c1ccc([N+](=O)[O-])s1`: the “CDK2 expression, result in words” value in the series with CDK2 is reported as “reduced the expression”. For the same molecule, the “Cell viability, MALME-3M (MITF-dependent), result in words” value in the series on MALME-3M cells is reported as “specific activity against the MITF-dependent cells”. Also, the “Cell viability, A-375 (MITF-independent), result in words” value with A375 cells was “no impairment of viability”. Besides, in the series on SK-MEL-5 cells, the “Cell viability, SK-MEL-5 (MITF-dependent), result in words” value is given as “specific activity against the MITF-dependent cells”.
